For nine molecules, IC50 and EPSA results are on record in patent US20260022143A1, “Cyclic Peptide Inhibitors of IL-23” (JANSSEN PHARMACEUTICA NV, priority 2022, published 2026).

The structures appear in SMILES notation. Starred links: 1 amine or outer side, 2 acyl side, 3 side chain; linkers in the order of their positions; H or OH if unused. Positions of bridges follow the written chain, without caps; N, C: chain ends. Non-standard residues stand in square brackets, D forms with d. Residues, ends and D or L forms follow the SMILES beside them. Groups on a side chain read outwards from the residue. *: point of attachment. Trp(7-(3-AcNH-Ph)) = CC(=O)Nc1cccc(-c2cccc3c(C[C@H](N)C(=O)O)c[nH]c23)c1; X33 = C[N+](C)(C)CCCCc1cn(-c2ccc(C[C@H](N[*:1])C(=O)[*:2])cc2)nn1; Me3N+(CH2)2O(CH2)2O(CH2)2CO = C[N+](C)(C)CCOCCOCCC(=O)*; CH2CH2OCH2CH2OCH2CH2NMe3+ = C[N+](C)(C)CCOCCOCC*; Trp(7-Me) = Cc1cccc2c(C[C@H](N)C(=O)O)c[nH]c12; PEG9 = NCCOCCOCCOCCOCCOCCOCCOCCOCCOCCC(=O)O; Abu(4-yl) = O=C([C@H](CC[*:3])N[*:1])[*:2]; γGlu = O=C(O)[C@H](CCC(=O)[*:2])N[*:1]; 2Nal = N[C@@H](Cc1ccc2ccccc2c1)C(=O)O; AEF = NCCOc1ccc(C[C@H](N)C(=O)O)cc1; 3Pal = N[C@@H](Cc1cccnc1)C(=O)O; Lys(Me) = CNCCCC[C@H](N)C(=O)O; NMeK = CN[C@@H](CCCCN)C(=O)O; Pen = CC(C)(S)[C@H](N)C(=O)O; Lauroyl = CCCCCCCCCCCC(=O)*; αMeC = C[C@](N)(CS)C(=O)O; Ac6c = NC1(C(=O)O)CCCCC1; Nle = CCCC[C@H](N)C(=O)O; Thp = NC1(C(=O)O)CCOCC1; X3 = C[N+](C)(C)CCCCC*; AEEA = NCCOCCOCC(=O)O; Sar = CNCC(=O)O

In the first series the target is T1, IL-23R (Homo sapiens, UniProt Q5VWK5).
T1 construct: host or cells: HEK293
T1 sequence (Q5VWK5 24-629): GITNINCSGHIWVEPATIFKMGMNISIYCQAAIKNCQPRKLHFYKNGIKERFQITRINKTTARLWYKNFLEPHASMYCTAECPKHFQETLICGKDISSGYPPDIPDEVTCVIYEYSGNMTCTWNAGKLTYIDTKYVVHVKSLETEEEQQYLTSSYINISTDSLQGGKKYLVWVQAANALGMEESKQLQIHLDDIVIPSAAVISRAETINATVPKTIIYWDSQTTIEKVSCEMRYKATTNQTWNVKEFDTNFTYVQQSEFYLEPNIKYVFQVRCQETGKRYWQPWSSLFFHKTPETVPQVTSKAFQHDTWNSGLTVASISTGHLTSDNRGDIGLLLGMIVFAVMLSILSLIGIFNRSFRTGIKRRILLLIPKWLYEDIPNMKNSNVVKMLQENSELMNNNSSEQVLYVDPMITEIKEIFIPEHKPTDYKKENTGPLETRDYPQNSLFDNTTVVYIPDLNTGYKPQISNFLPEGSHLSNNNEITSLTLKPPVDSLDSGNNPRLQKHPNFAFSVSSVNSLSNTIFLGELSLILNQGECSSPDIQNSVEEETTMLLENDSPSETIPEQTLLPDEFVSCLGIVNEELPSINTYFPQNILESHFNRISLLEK
Description: IL23R Reporter Assay. In kind it is cell-based. The settings on record: HEK293 cells containing IL-23R, IL-12RP1 and STAT-inducible firefly luciferase reporter; 10 ng/mL IL-23 (EC90); 5 h at 37° C.; read-out: IL23R Reporter Assay.
With `CC(=O)N(C)CCCC[C@@H]1NC(=O)[C@H](Cc2c[nH]c3c(C)cccc23)NC(=O)[C@H]([C@@H](C)O)NC(=O)[C@H](CC(=O)N(C)C)NC(=O)[C@@H](NC(=O)CCOCCOCC[N+](C)(C)C)C(C)(C)SSC(C)(C)[C@@H](C(=O)N[C@@H](Cc2ccc(OCCNC(=O)CCOCCOCC[N+](C)(C)C)cc2)C(=O)N[C@@H](Cc2ccc3ccccc3c2)C(=O)NC2(C(=O)N[C@@H](CCCCN(C)C(C)=O)C(=O)N[C@@H](CC(N)=O)C(=O)N[C@@H](Cc3cccnc3)C(=O)N(C)CC(=O)N(C)C)CCOCC2)NC1=O` [compound 571, cPEG3aCO-Pen(3)-N(N(Me)2)-T-7MeW-K(NMeAc)-Pen(3)-AEF(cPEG3a)-2Nal-THP-K(NMeAc)-N-3Pya-Sar-CONMe2] ({Me3N+(CH2)2O(CH2)2O(CH2)2CO}-[Pen]D(NMe2)T[Trp(7-Me)][Lys(Me)](Ac)[Pen][AEF](Me3N+(CH2)2O(CH2)2O(CH2)2CO)[2Nal][Thp][Lys(Me)](Ac)N[3Pal][Sar]-NMe2; disulfide 1-6), the IC50 is 3.5 nM.

As for `CCCCCCCCCCCC(=O)N[C@@H](CCC(=O)NCCOCCOCC(=O)NCCOCCOCC(=O)NCCOCCOCC(=O)NCCCC[C@H](NC(=O)C1(NC(=O)[C@H](Cc2ccc3ccccc3c2)NC(=O)[C@H](Cc2ccc(OCCCCC[N+](C)(C)C)cc2)NC(=O)[C@H]2NC(=O)[C@H](CCCCNC(C)=O)NC(=O)[C@H](Cc3c[nH]c4c(C)cccc34)NC(=O)[C@H]([C@@H](C)O)NC(=O)[C@H](CC(=O)N(C)C)NC(=O)[C@@H](NC(=O)CCOCCOCC[N+](C)(C)C)C(C)(C)SSC2(C)C)CCOCC1)C(=O)N[C@@H](CC(N)=O)C(=O)N[C@@H](Cc1cccnc1)C(=O)N(C)[C@@H](CCCCNC(=O)COCCOCCNC(=O)COCCOCCNC(=O)COCCOCCNC(=O)CC[C@H](NC(=O)CCCCCCCCCCC)C(=O)O)C(N)=O)C(=O)O` [compound 373, cPEG3aCO-Pen(3)-N(N(Me)2)-T-7MeW-K(Ac)-Pen(3)-TMAPF-2Nal-THP-K(PEG2PEG2PEG2gEC12))-N-3Pya-NMeK(PEG2PEG2PEG2gEC12)-CONH2] ({Me3N+(CH2)2O(CH2)2O(CH2)2CO}-[Pen]D(NMe2)T[Trp(7-Me)]K(Ac)[Pen]Y(X3)[2Nal][Thp]K([AEEA-AEEA-AEEA-γGlu-Lauroyl])N[3Pal][NMeK]([AEEA-AEEA-AEEA-γGlu-Lauroyl])-NH2; disulfide 1-6), the IC50 worked out at 87 nM.

On to `CC(=O)NCCCC[C@@H]1NC(=O)[C@H](Cc2c[nH]c3ccccc23)NC(=O)[C@H]([C@@H](C)O)NC(=O)[C@H](CC(N)=O)NC(=O)[C@@H](NC(=O)[C@@H](CCCNC(=N)N)NC(=O)CCOCCOCC[N+](C)(C)C)CCSC[C@@](C)(C(=O)N[C@@H](Cc2ccc(OCCN)cc2)C(=O)N[C@@H](Cc2ccc3ccccc3c2)C(=O)NC2(C(=O)N[C@@H](CCCCNC(C)=O)C(=O)N[C@@H](CC(N)=O)C(=O)N[C@@H](Cc3cccnc3)C(=O)N(C)CC(N)=O)CCCCC2)NC1=O` [compound 548, cPEG3aCO-r-Abu(1)-N-T-W-K(Ac)-aMeC(1)-AEF-2Nal-THP-K(Ac-N-3Pya-Sar-CONH2] ({Me3N+(CH2)2O(CH2)2O(CH2)2CO}-[dR][Abu(4-yl)]NTWK(Ac)[αMeC][AEF][2Nal][Ac6c]K(Ac)N[3Pal][Sar]-NH2; thioether 2-7), for which the IC50 amounted to 6.4 nM.

In the case of `CC(=O)N[C@@H]1C(=O)N[C@@H](CC(=O)N(C)C)C(=O)N[C@@H]([C@@H](C)O)C(=O)N[C@@H](Cc2c[nH]c3c(C)cccc23)C(=O)N[C@@H](COCCOCC[N+](C)(C)C)C(=O)N[C@H](C(=O)N[C@@H](Cc2ccc(OCCOCCOCC[N+](C)(C)C)cc2)C(=O)N[C@@H](Cc2ccc3ccccc3c2)C(=O)NC2(C(=O)N[C@@H](CCCCN(C)C(C)=O)C(=O)N[C@@H](CC(N)=O)C(=O)N[C@@H](Cc3cccnc3)C(=O)N(C)CC(=O)N(C)C)CCOCC2)C(C)(C)SSC1(C)C` (relative stereo) [compound 267, MeCO-Pen(3)-N(N(Me)2)-T-7MeW-APEG2Ser(S*)-Pen(3)-APEG3F-2Nal-THP-K(NMeAc)-N-3Pya-Sar-CON(Me)2], the IC50 came to 4.2 nM.

Regarding `CC(=O)NCCCC[C@@H]1NC(=O)[C@H](Cc2c[nH]c3c(C)cccc23)NC(=O)[C@H]([C@@H](C)O)NC(=O)[C@H](CC(N)=O)NC(=O)[C@@H](NC(=O)[C@@H](CCCCNC(=O)CCOCCOCCOCCOCCOCCOCCOCCOCCOCCNC(C)=O)NC(C)=O)C(C)(C)SSC(C)(C)[C@@H](C(=O)N[C@@H](Cc2ccc(OCCN)cc2)C(=O)N[C@@H](Cc2ccc3ccccc3c2)C(=O)NC2(C(=O)N[C@@H](CCCCNC(C)=O)C(=O)N[C@@H](CC(N)=O)C(=O)N[C@@H](Cc3cccnc3)C(=O)N(C)CC(N)=O)CCOCC2)NC1=O` [compound 44] (Ac-[dK]([PEG9-Ac])[Pen]NT[Trp(7-Me)]K(Ac)[Pen][AEF][2Nal][Thp]K(Ac)N[3Pal][Sar]-NH2; disulfide 2-7 (inferred)), the IC50 was determined as 6.8 nM.

For `CCCC[C@H](NC(=O)C1(NC(=O)[C@H](Cc2ccc3ccccc3c2)NC(=O)[C@H](Cc2ccc(OCCOCCOCC[N+](C)(C)C)cc2)NC(=O)[C@H]2NC(=O)[C@H](CCCCN(C)C(C)=O)NC(=O)[C@H](Cc3c[nH]c4c(C)cccc34)NC(=O)[C@H]([C@@H](C)O)NC(=O)[C@H](CC(=O)N(C)C)NC(=O)[C@@H](NC(=O)CCOCCOCC[N+](C)(C)C)C(C)(C)SSC2(C)C)CCOCC1)C(=O)N[C@@H](CC(N)=O)C(=O)N[C@@H](Cc1cccnc1)C(=O)N(C)CC(=O)N(C)C` [compound 520, cPEG3aCO-Pen(3)-N(N(Me)2)-T-7MeW-K(NMeAc)-Pen(3)-APEG3F-2Nal-THP-Nle-N-3Pya-Sar-CON(Me)2] ({Me3N+(CH2)2O(CH2)2O(CH2)2CO}-[Pen]D(NMe2)T[Trp(7-Me)][Lys(Me)](Ac)[Pen]Y(CH2CH2OCH2CH2OCH2CH2NMe3+)[2Nal][Thp][Nle]N[3Pal][Sar]-NMe2; disulfide 1-6), the IC50 was 1.4 nM.

System in another series: not listed separately
Description: Exposed Polar Surface Area (EPSA). In kind it is physicochemical. The settings on record: SFC on Chirex 3014 column; sample 1 mM DMSO stock; read-out: EPSA. The essentials: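 Chirex 3014 column, 35 °C, 4 mL/min; CO2/MeOH + 20 mM NH4 formate, 5→60% modifier at 20%/min. UV/MS detection. EPSA (Å^2) from retention time vs 8-standard calibration line; duplicates; 1 mM DMSO stock injected undiluted.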
As to `CC(=O)NCCCC[C@@H]1NC(=O)[C@H](Cc2c[nH]c3c(-c4cccc(NC(C)=O)c4)cccc23)NC(=O)[C@H]([C@@H](C)O)NC(=O)[C@H](CC(N)=O)NC(=O)[C@@H](NC(=O)CCOCCOCC[N+](C)(C)C)C(C)(C)SSC(C)(C)[C@@H](C(=O)N[C@@H](Cc2ccc(OCCCCC[N+](C)(C)C)cc2)C(=O)N[C@@H](Cc2ccc3ccccc3c2)C(=O)NC2(C(=O)N[C@@H](CCC(=O)O)C(=O)N[C@@H](CC(N)=O)C(=O)N[C@@H](Cc3cccnc3)C(=O)N(C)CC(N)=O)CCOCC2)NC1=O` [compound 444, cPEG3aCO-Pen(3)-N-T-7(3NAcPh)W-K(Ac)-Pen(3)-TMAPF-2Nal-THP-E-N-3Pya-Sar-CONH2] ({Me3N+(CH2)2O(CH2)2O(CH2)2CO}-[Pen]NT[Trp(7-(3-AcNH-Ph))]K(Ac)[Pen]Y(X3)[2Nal][Thp]EN[3Pal][Sar]-NH2; disulfide 1-6), the EPSA worked out at 174 A^2.

On to `CC(=O)N[C@@H]1C(=O)N[C@@H](CC(=O)N(C)C)C(=O)N[C@@H]([C@@H](C)O)C(=O)N[C@@H](Cc2c[nH]c3c(C)cccc23)C(=O)N[C@@H](CCCCN(C)C(C)=O)C(=O)N[C@H](C(=O)N[C@@H](Cc2ccc(OCCN)cc2)C(=O)N[C@@H](Cc2ccc3ccccc3c2)C(=O)NC2(C(=O)N[C@@H](CCCCN(C)C(C)=O)C(=O)N[C@@H](CC(N)=O)C(=O)N[C@@H](Cc3cccnc3)C(=O)N(C)CC(N)=O)CCOCC2)C(C)(C)SSC1(C)C` [compound 182, MeCO-Pen(3)-N(N(Me)2)-T-7MeW-K(NMeAc)-Pen(3)-AEF-2Nal-THP-K(NMeAc)-N-3Pya-Sar-CONH2] (Ac-[Pen]D(NMe2)T[Trp(7-Me)][Lys(Me)](Ac)[Pen][AEF][2Nal][Thp][Lys(Me)](Ac)N[3Pal][Sar]-NH2; disulfide 1-6), for which the EPSA turned out to be 153 A^2.

In the case of `CC(=O)NCCCC[C@@H]1NC(=O)[C@H](Cc2c[nH]c3c(C)cccc23)NC(=O)[C@H]([C@@H](C)O)NC(=O)[C@H](CC(N)=O)NC(=O)[C@@H](NC(C)=O)C(C)(C)SSC(C)(C)[C@@H](C(=O)N[C@@H](Cc2ccc(-n3cc(CCCC[N+](C)(C)C)nn3)cc2)C(=O)N[C@@H](Cc2ccc3ccccc3c2)C(=O)NC2(C(=O)N[C@@H](CCC(=O)O)C(=O)N[C@@H](CC(N)=O)C(=O)N[C@@H](Cc3cccnc3)C(=O)N(C)CC(N)=O)CCOCC2)NC1=O` [compound 442] (Ac-[Pen]NT[Trp(7-Me)]K(Ac)[Pen][X33][2Nal][Thp]EN[3Pal][Sar]-NH2; disulfide 1-6 (inferred)), the EPSA was 169 A^2.
